Laboratory results as given in publication PMC9557946, “Intermittent MEK inhibition for the treatment of metastatic uveal melanoma” (Frontiers in Oncology, 2022).

Assays:
[1] = Pharmacokinetic analysis in serum (LC-MS/MS, non-compartmental)
[2] = system: SKMEL28 melanoma cell lines; parameters: method as in PMID 31874374; settings: intermittently administered; ref [19]; cited from earlier work

accumulation ([1]; during three days of dosing and repeated three-day courses) | average terminal half-life ([1]; from 8h serum concentration curves, likely an underestimation) [h] | time to maximum serum concentration after oral intake ([1]; overall) | Compound | effect of treatment interruptions on tumor growth [2]
little to no accumulation | 4.3 | approximately 1.7 hours | O=C(NOCCO)c1cc2nc[nH]c2c(F)c1Nc1ccc(Br)cc1Cl [N-desmethyl-selumetinib] | –
– | – | – | O=C(c1ccc(F)c(F)c1Nc1ccc(I)cc1F)N1CC(O)([C@@H]2CCCCN2)C1 [cobimetinib] | Treatment interruptions resulted in tumor regrowth that could not be compensated when drug administration was resumed
